Here are results for eleven compounds from patent publication US11633392B2 (priority 2016, dated 2023).

Assay [1] concerns the target T1, human opioid δ receptor (Homo sapiens, UniProt P41143).
T1 construct: host or cells: CHO cells
Description: Opioid receptor function test (Lance Ultra cAMP Kit), δ receptor. It is filed as cell-based. Conditions: for EC50: CHO cells expressing human δ receptor, cAMP, in the presence of forskolin; for Emax / δ receptor Emax: ratio to maximum reaction of control drug SNC80 taken as 100%. The method, then:
(§1) Opioid Receptor Function Test
(§2) The functional activities of the compounds provided by the present invention on the μ, δ, and κ opioid receptors were investigated.
(§3) The test was performed by using Lance Ultra cAMP Kit (PerkinElmer) according to a method predetermined for the kit. In the evaluation of the agonistic activity, CHO cells expressing each of the human opioid receptors (δ, μ, and κ, accession numbers and catalog numbers are mentioned below) and 10 μM of each test compound were reacted for 30 minutes in an assay buffer (1× HBSS, […], pH 7.4, […] (isobutylmethylxanthine), 7.5% BSA) in the presence of forskolin. Subsequently, the cAMP detection reagent included in the kit was added, and 1 hour afterward, time-resolved fluorescence measurement was performed by using the EnVision plate reader (PerkinElmer). The test compounds and the control drugs (δ: SNC80, μ: DAMGO, κ: U-69593) were evaluated in a concentration range of 10^−12 to 10^−5 M, a dose-response curve of each test compound was obtained from the fluorescence values at 665 nm, and EC50 value and the Emax value were calculated. The Emax value was calculated as a ratio of the maximum reaction of the test compound to the maximum reaction of each control drug, which is taken as 100%.
(§4) • δ: Catalog No. CT4607, Accession No. NM_000911.2 • μ: Catalog No. CT4605, Accession No. NM_000914 • κ: Catalog No. CT4606, Accession No. NM_000912 (ChanTest Corporation)

In assay [2] the target is T2, human opioid μ receptor (Homo sapiens, UniProt P35372).
T2 construct: host or cells: CHO cells
T2 sequence (P35372 whole entry): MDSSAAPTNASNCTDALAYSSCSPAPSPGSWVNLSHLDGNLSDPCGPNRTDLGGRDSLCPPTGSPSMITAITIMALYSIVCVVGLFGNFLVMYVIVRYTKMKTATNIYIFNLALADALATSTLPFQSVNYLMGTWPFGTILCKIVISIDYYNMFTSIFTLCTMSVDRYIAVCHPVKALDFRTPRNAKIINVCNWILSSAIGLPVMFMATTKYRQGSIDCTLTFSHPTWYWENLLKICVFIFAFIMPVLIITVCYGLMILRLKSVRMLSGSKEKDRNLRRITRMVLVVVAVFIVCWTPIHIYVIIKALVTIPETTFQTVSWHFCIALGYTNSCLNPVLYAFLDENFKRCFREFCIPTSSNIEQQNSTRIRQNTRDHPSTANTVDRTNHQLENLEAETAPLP
As to the kind of experiment: Opioid receptor function test (Lance Ultra cAMP Kit), μ receptor. It is filed as cell-based. The conditions noted are these: for EC50: read-out: μ receptor EC50 value. The method, then:
as §1, §2, §3, §4

In assay [3] the target is T3, human opioid κ receptor (Homo sapiens, UniProt P41145).
T3 construct: host or cells: CHO cells
T3 sequence (P41145 whole entry): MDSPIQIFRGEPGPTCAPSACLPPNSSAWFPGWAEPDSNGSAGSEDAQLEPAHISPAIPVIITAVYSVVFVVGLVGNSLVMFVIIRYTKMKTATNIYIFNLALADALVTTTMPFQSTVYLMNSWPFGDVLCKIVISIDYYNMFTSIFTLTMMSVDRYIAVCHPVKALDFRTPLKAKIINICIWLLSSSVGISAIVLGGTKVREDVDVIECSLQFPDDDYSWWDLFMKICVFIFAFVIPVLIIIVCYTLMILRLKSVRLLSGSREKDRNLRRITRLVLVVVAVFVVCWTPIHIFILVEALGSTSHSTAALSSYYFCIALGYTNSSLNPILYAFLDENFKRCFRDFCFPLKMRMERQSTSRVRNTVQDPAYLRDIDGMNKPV
As to the kind of experiment: Opioid receptor function test (Lance Ultra cAMP Kit), κ receptor. It is filed as cell-based. Conditions: for EC50: CHO cells expressing human κ receptor, cAMP, in the presence of forskolin; for κ receptor reaction rate at the maximum concentration (reference value, marked *): maximum reaction not reached, maximum concentration 10 μM, U-69593 = 100%. The method, then:
as §1, §2, §3, §4

Assay [4] deals with olfactory bulbectomized (OBX) rat. Description: Hyperemotional reaction inhibition test using olfactory bulbectomized (OBX) rat. The assay is classed as in vivo. The conditions noted are these: 10 mg/kg s.c. once a day, on the day 14 of the administration period. From the text: Hyperemotional Reaction Inhibition Test Using Olfactory Bulbectomized (OBX) Rat
According to the method of Saitoh et al. (Saitoh A, Yamada M, Yamada M, Takahashi K, Yamaguchi K, Murasawa H, Nakatani A, Tatsumi Y, Hirose N, and Kamei J: Antidepressant-like effects of the delta-opioid receptor agonist SNC80 ((+)-4-[(alphaR)-alpha-[(2S,5R)-2,5-dimethyl-4-(2-propenyl)-1-piperazinyl]-(3-methoxyphenyl)methyl]-N,N-diethylbenzamide) in an olfactory bulbectomized rat model, Brain Res., 2008, 1208:160-169), OBX rats were prepared by extracting the rat olfactory bulbs, and then breeding the rats in an isolated circumstance. Hyperemotional reaction was evaluated on the day 14 after the surgical operation and before the division into groups, and 2 hours after the administration on the days 1, 4, 7, 10, and 14 of the administration period according to the hyperemotional reaction evaluation criteria prepared by Gomita et al. (Gomita et al., Behavioral pharmacological and electroencephalographical studies of 7-chloro-1-methyl-5-phenyl-1H-1,5-benzodiazepine-2,4-(3H,5H:)-dione (Clobazam), Folia Pharmacologica Japonica, 82, 267 (1983)). The drug was subcutaneously administered once a day continuously over 14 days. As a positive control drug, fluoxetine, which is a selective serotonin reuptake inhibitor (SSRI), was used. As the solvent, a 1% cyclodextrin (CD) was used.

Setting [5] is: CHO cells expressing human μ receptor, cAMP, in the presence of forskolin.
The mark [6] stands for this setting: ratio to maximum reaction of control drug DAMGO taken as 100%.
Setting [7] is: ratio to maximum reaction of control drug U-69593 taken as 100%.

Where a name gives a salt, the structure may show the parent alone. Read-outs that look alike come from different tables or passages of the source. Marks after values point to notes of the source that are not given here.

The EC50 is the concentration that produces a half-maximal response. As usually defined, the Emax is the size of the effect at its maximum, as opposed to the concentration needed.

T1 sequence (P41143 whole entry): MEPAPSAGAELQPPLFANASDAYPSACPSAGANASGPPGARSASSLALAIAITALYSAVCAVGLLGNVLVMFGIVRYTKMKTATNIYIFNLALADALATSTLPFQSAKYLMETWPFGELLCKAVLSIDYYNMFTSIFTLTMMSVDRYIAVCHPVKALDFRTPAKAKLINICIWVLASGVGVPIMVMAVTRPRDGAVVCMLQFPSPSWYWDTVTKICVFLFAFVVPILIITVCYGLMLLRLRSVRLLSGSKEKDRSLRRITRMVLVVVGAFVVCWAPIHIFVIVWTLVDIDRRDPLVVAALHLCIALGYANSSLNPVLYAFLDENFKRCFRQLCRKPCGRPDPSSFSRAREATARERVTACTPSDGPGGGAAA

For the compound `CCn1cc(C(=O)N2C[C@H]3C[C@@]45CC[C@@H]2[C@@H]3[C@@]42CCN(CC3CC3)[C@@H]5Cc3ccc(O)cc32)ccc1=O` [Example 28, 5-((1S,3aR,5aS,6R,11bR,11cS)-14-(cyclopropylmethyl)-10-hydroxy-2,3,3a,4,5,6,7,11c-octahydro-1H-6,11b-(epiminoethano)-1,5a-methanonaphtho[1,2-e]indole-3-carbonyl)-1-ethylpyridin-2(1H)-one], the EC50 in assay [1] was less than 3 nM; in assay [2] (setting [5]) it was greater than 1 nM; in assay [3], less than 1 nM. Further, the results for the Emax in assay [1], in assay [2] (setting [6]) and in assay [3] (setting [7]) were 92%, 16% and 18%, respectively.
Take `O=C(c1cc(=O)cco1)N1C[C@H]2C[C@@]34CC[C@@H]1[C@@H]2[C@@]31CCN(CC2CC2)[C@@H]4Cc2ccc(O)cc21` [Example 19, 2-((1S,3aR,5aS,6R,11bR,11cS)-14-(cyclopropylmethyl)-10-hydroxy-2,3,3a,4,5,6,7,11c-octahydro-1H-6,11b-(epiminoethano)-1,5a-methanonaphtho[1,2-e]indole-3-carbonyl)-4H-pyran-4-one]: the EC50 in assay [1] is less than 3 nM; in assay [2] (setting [5]), greater than 1 nM. For the same compound, the Emax in assay [1] came out at 91%; in assay [2] (setting [6]), 19%. In addition, in assay [3], the “κ receptor reaction rate at the maximum concentration (reference value, marked *)” value (“κ receptor reaction rate” below) is 0.6* %.
On to `O=C(c1cc(=O)cc[nH]1)N1C[C@H]2C[C@@]34CC[C@@H]1[C@@H]2[C@@]31CCN(CC2CC2)[C@@H]4Cc2ccc(O)cc21` [Example 14, 2-((1S,3aR,5aS,6R,11bR,11cS)-14-(cyclopropylmethyl)-10-hydroxy-2,3,3a,4,5,6,7,11c-octahydro-1H-6,11b-(epiminoethano)-1,5a-methanonaphtho[1,2-e]indole-3-carbonyl)pyridin-4(1H)-one], for which the EC50 in assay [1] is less than 3 nM; in assay [2] (setting [5]), greater than 1 nM. Also, the values for the Emax in assay [1] and in assay [2] (setting [6]) were 95% and 8.1%, respectively. In addition, in assay [3], the “κ receptor reaction rate” value was −6.7* %.
With `O=C(c1ccc(=O)[nH]c1)N1C[C@H]2C[C@@]34CC[C@@H]1[C@@H]2[C@@]31CCN(CC2CC2)[C@@H]4Cc2ccc(O)cc21` [Example 5, 5-((1S,3aR,5aS,6R,11bR,11cS)-14-(cyclopropylmethyl)-10-hydroxy-2,3,3a,4,5,6,7,11c-octahydro-1H-6,11b-(epiminoethano)-1,5a-methanonaphtho[1,2-e]indole-3-carbonyl)pyridin-2(1H)-one], the figures for the EC50 in assay [1], in assay [2] (setting [5]) and in assay [3] were less than 3 nM, greater than 1 nM and less than 1 nM, respectively. The Emax in assay [1] was determined as 81%; in assay [2] (setting [6]), 9.7%; in assay [3] (setting [7]) it was 20%.
Consider `O=C(c1ccc[n+]([O-])c1)N1C[C@H]2C[C@@]34CC[C@@H]1[C@@H]2[C@@]31CCN(CC2CC2)[C@@H]4Cc2ccc(O)cc21` [Example 4, 3-((1S,3aR,5aS,6R,11bR,11cS)-14-(cyclopropylmethyl)-10-hydroxy-2,3,3a,4,5,6,7,11c-octahydro-1H-6,11b-(epiminoethano)-1,5a-methanonaphtho[1,2-e]indole-3-carbonyl)pyridine 1-oxide], for which the EC50 in assay [1] is less than 3 nM; in assay [3], greater than 10 nM. The Emax turned out to be 86% in assay [1] and 27% in assay [3] (setting [7]). Further, in assay [2] (maximum reaction not reached, maximum concentration 10 μM, DAMGO = 100%), the “μ receptor reaction rate at the maximum concentration (reference value, marked *)” value is on record as 5.5* %.
As for `O=C(c1cc[nH]c(=O)c1)N1C[C@H]2C[C@@]34CC[C@@H]1[C@@H]2[C@@]31CCN(CC2CC2)[C@@H]4Cc2ccc(O)cc21` [Example 11, 4-((1S,3aR,5aS,6R,11bR,11cS)-14-(cyclopropylmethyl)-10-hydroxy-2,3,3a,4,5,6,7,11c-octahydro-1H-6,11b-(epiminoethano)-1,5a-methanonaphtho[1,2-e]indole-3-carbonyl)pyridin-2(1H)-one], the results for the EC50 in assay [1] and in assay [2] (setting [5]) were less than 3 nM and greater than 1 nM, respectively. In addition, the maximal effect (Emax) in assay [1] came to 76%; in assay [2] (setting [6]), 11%. Moreover, in assay [3], the “κ receptor reaction rate” value is recorded as −2.5* %.
On to `Cn1cccc(C(=O)N2C[C@H]3C[C@@]45CC[C@@H]2[C@@H]3[C@@]42CCN(CC3CC3)[C@@H]5Cc3ccc(O)cc32)c1=O` [Example 31, 3-((1S,3aR,5aS,6R,11bR,11cS)-14-(cyclopropylmethyl)-10-hydroxy-2,3,3a,4,5,6,7,11c-octahydro-1H-6,11b-(epiminoethano)-1,5a-methanonaphtho[1,2-e]indole-3-carbonyl)-1-methylpyridin-2(1H)-one hydrochloride], for which, in assay [1], the “δ receptor Emax” value turned out to be 97%. Also, in assay [2], the “μ receptor Emax” value stood at 7.7% and the EC50 is greater than 10 nM.
As to `Cc1ccc(C(=O)N2C[C@H]3C[C@@]45CC[C@@H]2[C@@H]3[C@@]42CCN(CC3CC3)[C@@H]5Cc3ccc(O)cc32)c(=O)[nH]1` [Example 8, 3-((1S,3aR,5aS,6R,11bR,11cS)-14-(cyclopropylmethyl)-10-hydroxy-2,3,3a,4,5,6,7,11c-octahydro-1H-6,11b-(epiminoethano)-1,5a-methanonaphtho[1,2-e]indole-3-carbonyl)-6-methylpyridin-2(1H)-one], the results for the 50% effective concentration (EC50) in assay [1], in assay [2] (setting [5]) and in assay [3] were less than 3 nM, greater than 1 nM and less than 1 nM, respectively. Also, the Emax in assay [1] was 70%; in assay [2] (setting [6]) it was 8.6%; in assay [3] (setting [7]), 21%.
For `Cn1cccc(C(=O)N2C[C@H]3C[C@@]45CC[C@@H]2[C@@H]3[C@@]42CCN(CC3CC3)[C@@H]5Cc3ccc(O)cc32)c1=O` [Example 6, 3-((1S,3aR,5aS,6R,11bR,11cS)-14-(cyclopropylmethyl)-10-hydroxy-2,3,3a,4,5,6,7,11c-octahydro-1H-6,11b-(epiminoethano)-1,5a-methanonaphtho[1,2-e]indole-3-carbonyl)-1-methylpyridin-2(1H)-one], the EC50 is less than 3 nM in assay [1] and greater than 10 nM in assay [2] (setting [5]). Also, the results for the Emax in assay [1] and in assay [2] (setting [6]) were 97% and 7.7%, respectively. The “κ receptor reaction rate” value in assay [3] is reported as 3.2* %.
As for `CNCCC(Oc1ccc(C(F)(F)F)cc1)c1ccccc1` (centres unmarked) [fluoxetine, reference compound], the “hyperemotional reactions of the OBX rats compared with the solvent administration group” value in assay [4] is “significantly reduced”.
For the compound `Cc1ccc(C(=O)N2C[C@H]3C[C@@]45CC[C@@H]2[C@@H]3[C@@]42CCN(CC3CC3)[C@@H]5Cc3ccc(O)cc32)c(=O)[nH]1` [Example 32, 3-((1S,3aR,5aS,6R,11bR,11cS)-14-(cyclopropylmethyl)-10-hydroxy-2,3,3a,4,5,6,7,11c-octahydro-1H-6,11b-(epiminoethano)-1,5a-methanonaphtho[1,2-e]indole-3-carbonyl)-6-methylpyridin-2(1H)-one hydrochloride], the “δ receptor Emax” value in assay [1] stood at 70%. For the same compound, the “μ receptor Emax” value in assay [2] (setting [6]) was 8.6%. For the same compound, the “κ receptor Emax” value in assay [3] (setting [7]) is on record as 21%.
